Results reported in patent publication US20180318311A1, “TRICYCLIC 2-QUINOLINONES AS ANTIBACTERIALS” (priority 2017, published 2018).
≈ marks a conversion by molar mass, not a printed value.

Experiments:
Type in all cases: cell-based
[1] = test system: S. aureus NB01080 fluoroquinolone-resistant clinical isolate; test: MIC by broth microdilution, S. aureus NB01080; settings: Staphylococcus aureus, CAMHB, 35° C., 20 hours, read-out: Antibacterial activity (MIC) NB01080
Outline: (§1)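 CAMHB, ~5×10^5 CFU/mL, 2-fold serial dilutions (final DMSO 1%), 35° C, ambient air, 20 h. Read OD600 plus visual check; MIC = lowest conc. with no visible growth, μg/mL.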

[2] = test system: S. aureus ATCC 49951 (NB01006); test: MIC by broth microdilution, S. aureus NB01006; settings: Staphylococcus aureus, ATCC49951, CAMHB, 35° C., 20 hours, read-out: Antibacterial activity (MIC) NB01006
Outline: as §1

[3] = test system: P. aeruginosa NB52019, wild-type PAO1 strain; test: MIC by broth microdilution, P. aeruginosa NB52019; settings: Pseudomonas aeruginosa, CAMHB, 35° C., 20 hours, read-out: Antibacterial activity (MIC) NB52019
Outline: as §1

[4] = test system: E. coli ATCC 25922 (NB27001); test: MIC by broth microdilution, E. coli NB27001; settings: Escherichia coli, ATCC25922, CAMHB, 35° C., 20 hours, read-out: Antibacterial activity (MIC) NB27001
Outline: as §1

[5] = test system: E. faecalis ATCC 29212 (NB04001); test: MIC by broth microdilution, E. faecalis NB04001; settings: Enterococcus faecalis, ATCC29212, CAMHB, 35° C., 20 hours, read-out: Antibacterial activity (MIC) NB04001
Outline: as §1

[6] = test system: S. aureus NB01006-AVR005, gyrA (S84L), grlA (580F) and grlB (E471K); test: microbe, parasite or virus in culture; settings: Staphylococcus aureus, 20 h, read-out: Antibacterial activity (MIC) NB01006-AVR005
Outline: as §1

[7] = test system: S. pneumoniae ATCC 25922 (NB07001); test: MIC by broth microdilution, S. pneumoniae NB07001; settings: Streptococcus pneumoniae, ATCC25922, 20 h, read-out: Antibacterial activity (MIC) NB07001
Outline: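 CLSI broth microdilution in CAMHB, inoculum ~5×10^5 CFU/mL, two-fold compound dilutions at 1% final DMSO. Plates incubated 20 h at 35°C in ambient air; MIC (μg/mL) is the lowest concentration preventing visible growth, confirmed by OD600.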

Row | SMILES | MIC [1] | MIC [2] | MIC [3] | MIC [4] | MIC [5] | MIC [6] | MIC [7]
1 | CNC1([C@@H]2CCN(c3c(F)cc4cc(C(=O)O)c(=O)n5c4c3OC[C@@H]5C)C2)CC1 [Example 1.12, (S)-9-fluoro-3-methyl-10-((R)-3-(1-(methylamino)cyclopropyl)pyrrolidin-1-yl)-5-oxo-2,3-dihydro-5H-[1,4]oxazino[2,3,4-ij]quinoline-6-carboxylic acid] | 1 to 32 µg/mL (≈ 2.49 to 79.7 µM) | < 1 µg/mL | > 32 µg/mL | 1 to 32 µg/mL (≈ 2.49 to 79.7 µM) | 1 to 32 µg/mL (≈ 2.49 to 79.7 µM) | 1 to 32 µg/mL (≈ 2.49 to 79.7 µM) | < 1 µg/mL
2 | C[C@H]1COc2c(N3CC4CCCC4(N)C3)c(F)cc3cc(C(=O)O)c(=O)n1c23 (stereo partly drawn) [Example 1.13, (3S)-10-(3a-aminohexahydrocyclopenta [c]pyrrol-2(1H)-yl)-9-fluoro-3-methyl-5-oxo-2,3-dihydro-5H-[1,4]oxazino[2,3,4-ij]quinoline-6-carboxylic acid] | > 32 µg/mL | 1 to 32 µg/mL (≈ 2.58 to 82.6 µM) | > 32 µg/mL | 1 to 32 µg/mL (≈ 2.58 to 82.6 µM) | 1 to 32 µg/mL (≈ 2.58 to 82.6 µM) | > 32 µg/mL | 1 to 32 µg/mL (≈ 2.58 to 82.6 µM)
3 | C[C@H]1COc2c(N3CCN4C(=O)CCC4C3)c(F)cc3cc(C(=O)O)c(=O)n1c23 (stereo partly drawn) [Example 1.14, (3S)-9-fluoro-3-methyl-5-oxo-10-(6-oxohexahydropyrrolo[1,2-a]pyrazin-2(1H)-yl)-2,3-dihydro-5H-[1,4]oxazino[2,3,4-ij]quinoline-6-carboxylic acid] | 1 to 32 µg/mL (≈ 2.49 to 79.7 µM) | < 1 µg/mL | > 32 µg/mL | > 32 µg/mL | 1 to 32 µg/mL (≈ 2.49 to 79.7 µM) | 1 to 32 µg/mL (≈ 2.49 to 79.7 µM) | 1 to 32 µg/mL (≈ 2.49 to 79.7 µM)
4 | C[C@H]1COc2c(N3Cc4ccncc4C3)c(F)cc3cc(C(=O)O)c(=O)n1c23 [Example 1.15, (S)-10-(1,3-dihydro-2H-pyrrolo[3,4-c]pyridin-2-yl)-9-fluoro-3-methyl-5-oxo-2,3-dihydro-5H-[1,4]oxazino[2,3,4-ij]quinoline-6-carboxylic acid] | 1 to 32 µg/mL (≈ 2.62 to 83.9 µM) | < 1 µg/mL | > 32 µg/mL | 1 to 32 µg/mL (≈ 2.62 to 83.9 µM) | 1 to 32 µg/mL (≈ 2.62 to 83.9 µM) | 1 to 32 µg/mL (≈ 2.62 to 83.9 µM) | < 1 µg/mL
5 | C[C@H]1COc2c(N3CCC(F)(CN)C3)c(F)cc3cc(C(=O)O)c(=O)n1c23 (stereo partly drawn) [Example 1.16, (3S)-10-(3-(aminomethyl)-3-fluoropyrrolidin-1-yl)-9-fluoro-3-methyl-5-oxo-2,3-dihydro-5H-[1,4]oxazino[2,3,4-ij]quinoline-6-carboxylic acid] | 1 to 32 µg/mL (≈ 2.64 to 84.4 µM) | < 1 µg/mL | > 32 µg/mL | 1 to 32 µg/mL (≈ 2.64 to 84.4 µM) | 1 to 32 µg/mL (≈ 2.64 to 84.4 µM) | 1 to 32 µg/mL (≈ 2.64 to 84.4 µM) | < 1 µg/mL
6 | C[C@H]1COc2c(N3CCC4(CC3)CNC4)c(F)cc3cc(C(=O)O)c(=O)n1c23 [Example 1.17, (S)-9-fluoro-3-methyl-5-oxo-10-(2,7-diazaspiro[3,5]nonan-7-yl)-2,3-dihydro-5H-[1,4]oxazino[2,3,4-ij]quinoline-6-carboxylic acid] | > 32 µg/mL | > 32 µg/mL | > 32 µg/mL | > 32 µg/mL | > 32 µg/mL | > 32 µg/mL | > 32 µg/mL
7 | C[C@H]1COc2c(N3CC4CC4(CN)C3)c(F)cc3cc(C(=O)O)c(=O)n1c23 (stereo partly drawn) [Example 1.18] | > 32 µg/mL | < 1 µg/mL | > 32 µg/mL | > 32 µg/mL | 1 to 32 µg/mL (≈ 2.68 to 85.7 µM) | > 32 µg/mL | 1 to 32 µg/mL (≈ 2.68 to 85.7 µM)
8 | CC[C@H]1COc2c(N3CC[C@@H](C4(N)CC4)C3)c(F)cc3cc(C(=O)O)c(=O)n1c23 [Example 1.19, (S)-10-((R)-3-(1-aminocyclopropyl)pyrrolidin-1-yl)-3-ethyl-9-fluoro-5-oxo-2,3-dihydro-5H-[1,4]oxazino[2,3,4-ij]quinoline-6-carboxylic acid] | 1 to 32 µg/mL (≈ 2.49 to 79.7 µM) | 1 to 32 µg/mL (≈ 2.49 to 79.7 µM) | > 32 µg/mL | > 32 µg/mL | 1 to 32 µg/mL (≈ 2.49 to 79.7 µM) | > 32 µg/mL | < 1 µg/mL
9 | NC1([C@@H]2CCN(c3c(F)cc4cc(C(=O)O)c(=O)n5c4c3OCC5)C2)CC1 [Example 1.20, (R)-10-(3-(1-aminocyclopropyl)pyrrolidin-1-yl)-9-fluoro-5-oxo-2,3-dihydro-5H-[1,4]oxazino[2,3,4-ij]quinoline-6-carboxylic acid] | 1 to 32 µg/mL (≈ 2.68 to 85.7 µM) | 1 to 32 µg/mL (≈ 2.68 to 85.7 µM) | > 32 µg/mL | > 32 µg/mL | 1 to 32 µg/mL (≈ 2.68 to 85.7 µM) | > 32 µg/mL | 1 to 32 µg/mL (≈ 2.68 to 85.7 µM)
10 | C[C@@H]1COc2c(N3CC[C@@H](C4(N)CC4)C3)c(F)cc3cc(C(=O)O)c(=O)n1c23 [Example 1.21, (R)-10-((R)-3-(1-aminocyclopropyl)pyrrolidin-1-yl)-9-fluoro-3-methyl-5-oxo-2,3-dihydro-5H-[1,4]oxazino[2,3,4-ij]quinoline-6-carboxylic acid] | > 32 µg/mL | 1 to 32 µg/mL (≈ 2.58 to 82.6 µM) | > 32 µg/mL | > 32 µg/mL | > 32 µg/mL | > 32 µg/mL | 1 to 32 µg/mL (≈ 2.58 to 82.6 µM)
11 | C[C@@H]1Cn2c(=O)c(C(=O)O)cc3cc(F)c(N4CC[C@@H](C5(N)CC5)C4)c(c32)O1 [Example 1.22, (R)-10-((R)-3-(1-aminocyclopropyl)pyrrolidin-1-yl)-9-fluoro-2-methyl-5-oxo-2,3-dihydro-5H-[1,4]oxazino[2,3,4-ij]quinoline-6-carboxylic acid] | 1 to 32 µg/mL (≈ 2.58 to 82.6 µM) | 1 to 32 µg/mL (≈ 2.58 to 82.6 µM) | > 32 µg/mL | > 32 µg/mL | 1 to 32 µg/mL (≈ 2.58 to 82.6 µM) | > 32 µg/mL | 1 to 32 µg/mL (≈ 2.58 to 82.6 µM)
12 | C[C@H]1Cn2c(=O)c(C(=O)O)cc3cc(F)c(N4CC[C@@H](C5(N)CC5)C4)c(c32)O1 [Example 1.23, (S)-10-((R)-3-(1-aminocyclopropyl)pyrrolidin-1-yl)-9-fluoro-2-methyl-5-oxo-2,3-dihydro-5H-[1,4]oxazino[2,3,4-ij]quinoline-6-carboxylic acid] | > 32 µg/mL | > 32 µg/mL | > 32 µg/mL | 1 to 32 µg/mL (≈ 2.58 to 82.6 µM) | > 32 µg/mL | > 32 µg/mL | 1 to 32 µg/mL (≈ 2.58 to 82.6 µM)
13 | C[C@H]1CCOc2c(N3CC[C@@H](C4(N)CC4)C3)c(F)cc3cc(C(=O)O)c(=O)n1c23 [Example 1.24, (S)-11-((R)-3-(1-aminocyclopropyl)pyrrolidin-1-yl)-10-fluoro-4-methyl-6-oxo-3,4-dihydro-2H,6H-[1,4]oxazepino[2,3,4-ij]quinoline-7-carboxylic acid] | 1 to 32 µg/mL (≈ 2.49 to 79.7 µM) | < 1 µg/mL | > 32 µg/mL | 1 to 32 µg/mL (≈ 2.49 to 79.7 µM) | < 1 µg/mL | 1 to 32 µg/mL (≈ 2.49 to 79.7 µM) | < 1 µg/mL
14 | C[C@H]1COc2c(N3Cc4cccc(F)c4C3)c(F)cc3cc(C(=O)O)c(=O)n1c23 [Example 1.25, (S)-9-fluoro-10-(4-fluoroisoindolin-2-yl)-3-methyl-5-oxo-2,3-dihydro-5H-[1,4]oxazino[2,3,4-ij]quinoline-6-carboxylic acid] | < 1 µg/mL | < 1 µg/mL | > 32 µg/mL | > 32 µg/mL | 1 to 32 µg/mL (≈ 2.51 to 80.3 µM) | > 32 µg/mL | 1 to 32 µg/mL (≈ 2.51 to 80.3 µM)
15 | C[C@H]1COc2c(N3CCC(C)(CN)C3)c(F)cc3cc(C(=O)O)c(=O)n1c23 (stereo partly drawn) [Example 1.26, (3S)-10-(3-(aminomethyl)-3-methylpyrrolidin-1-yl)-9-fluoro-3-methyl-5-oxo-2,3-dihydro-5H-[1,4]oxazino[2,3,4-ij]quinoline-6-carboxylic acid] | 1 to 32 µg/mL (≈ 2.66 to 85.2 µM) | 1 to 32 µg/mL (≈ 2.66 to 85.2 µM) | > 32 µg/mL | 1 to 32 µg/mL (≈ 2.66 to 85.2 µM) | 1 to 32 µg/mL (≈ 2.66 to 85.2 µM) | > 32 µg/mL | 1 to 32 µg/mL (≈ 2.66 to 85.2 µM)
